In US20200383844A1, “ABSORBENT ARTICLE” (Kao Corporation, priority 2017, published 2020):

Key:
[1] = Viscosity of liquid film cleavage agent; format: physicochemical; conditions: 25° C., RH 65%, average of three
Procedure: First, 40 g of a liquid film cleavage agent is prepared. […] This operation is repeated three times, and an average value is adopted as the viscosity. In addition, when the liquid film cleavage agent is solid, the liquid film cleavage agent is heated to a temperature of a melting point of the liquid film cleavage agent plus 5° C. to induce phase transition into liquid, and the measurement is performed with keeping the temperature conditions.
As a result of measuring viscosity by the method shown in (Method for measuring viscosity of liquid film cleavage agent) described above, the viscosity of the liquid film cleavage agent was 163 cps.

[2] = Spreading coefficient of liquid film cleavage agent; format: physicochemical; conditions: 25° C., RH 65%
Excerpt: (§1) Definitions of “spreading coefficient to the liquid having surface tension of 50 mN/m” and “water solubility” of the liquid film cleavage agent, as specified in the first aspect and the second aspect, and measuring methods of surface tension (γw) of a liquid film (liquid having surface tension of 50 mN/m), surface tension (γo) of a liquid film cleavage agent, interfacial tension (γwo) between the liquid film and the liquid film cleavage agent, and water solubility of the liquid film cleavage agent are as described in the paragraphs {0015} to {0022} in WO 2016/098796.
(§2) Hereinafter, the present invention will be described more in detail with reference to Examples, but the present invention is not limited thereto. In addition, both terms “part” and “%” in the Examples are based on mass unless otherwise noted. […]
(§3) On the occasion, as a “liquid having surface tension of 50 mN/m,” a solution was used, in which the solution was prepared by adding, to 100 g of deionized water, 3.75 μL of POE sorbitan monolaurate (trade name “RHEODOL Super TW-L120,” manufactured by Kao Corporation) being a nonionic surface active substance by a micropipette (trade name “ACURA 825,” manufactured by Socorex Isba SA), and adjusting the surface tension to 50±1 mN/m. Moreover, the water solubility was measured by adding the agent for every 0.0001 g.

[3] = Interfacial tension of liquid film cleavage agent; format: physicochemical; conditions: 25° C., RH 65%
Excerpt: as §1, §2, §3

[4] = Surface tension of liquid film cleavage agent; format: physicochemical; conditions: 25° C., RH 65%
[5] = Excerpt: as §1
Hereinafter, the present invention will be described more in detail with reference to Examples, but the present invention is not limited thereto. In addition, both terms “part” and “%” in the Examples are based on mass unless otherwise noted. […] In addition, a sign “-” in the following Tables means that neither an agent shown in a name of an item is used, nor the result has an applicable value in the item, or the like. Moreover, a leftward arrow “←” means that the content is the same as described in an adjacent column indicated by the arrow.
as §3

Substance | Viscosity [1] [cps] | Spreading coefficient to liquid having surface tension of 50 mN/m [2] [mN/m] | Interfacial tension to liquid having surface tension of 50 mN/m [3] [mN/m] | Surface tension [4] [mN/m] | Water solubility [5]
POP alkyl ether [POP(15) alkyl ether] | 129 | 5.4 | 12.8 | 31.8 | ← g
POP-modified dimethyl silicone [POP(12)-modified dimethyl silicone] |  |  |  |  | 0.025 or less g
PPG |  |  |  |  | 0.025 or less g
epoxy-modified dimethyl silicone |  |  |  |  | ← g
